Assay results as given in patent US20220017877A1, “BILIRUBIN OXIDASE ACTIVITY IMPROVING METHOD, AND BILIRUBIN OXIDASE PRODUCT” (OZEKI CORPORATION, priority 2018, published 2022).
Where a name gives a salt, the structure may show the parent alone.

Key:
[1] = target: T1, recombinant BOD (bilirubin oxidase) derived from Myrothecium verrucaria MT-1 (Albifimbria verrucaria, UniProt Q12737); assay: BOD activity after leaving the BOD solution with an activity improving agent or comparative substance at 30° C. in a deoxygenated atmosphere (Test Example 1); assay type: biochemical; details: for Activity (%) Day 47: left 47 days at 30° C.; for Activity (%) Day 47 / Activity (%) Day 14: relative to Day 0, additive concentration as in Table 1; for Activity (%) Day 0: 30° C., additive concentration as in Table 1; for Activity (%) Day 14: left 14 days at 30° C.
T1 construct: made in house; host or cells: Aspergillus sp
T1 sequence (Q12737 39-572): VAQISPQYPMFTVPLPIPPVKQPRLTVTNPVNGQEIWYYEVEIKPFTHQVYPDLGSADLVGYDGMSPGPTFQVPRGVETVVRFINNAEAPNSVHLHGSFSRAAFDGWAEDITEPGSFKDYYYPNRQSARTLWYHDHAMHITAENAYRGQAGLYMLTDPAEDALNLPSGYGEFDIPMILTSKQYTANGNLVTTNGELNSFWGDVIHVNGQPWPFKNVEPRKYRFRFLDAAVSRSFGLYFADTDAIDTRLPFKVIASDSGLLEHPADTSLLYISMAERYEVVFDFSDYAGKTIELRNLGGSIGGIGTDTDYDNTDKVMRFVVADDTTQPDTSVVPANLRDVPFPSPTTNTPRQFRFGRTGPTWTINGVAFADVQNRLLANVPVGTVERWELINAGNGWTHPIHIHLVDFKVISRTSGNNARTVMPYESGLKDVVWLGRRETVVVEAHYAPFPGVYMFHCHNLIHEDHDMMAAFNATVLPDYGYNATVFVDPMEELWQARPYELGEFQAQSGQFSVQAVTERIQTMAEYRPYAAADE
Procedure: A BOD solution, which contains: a BOD; and the present activity improving agent or a comparative substance, was left in an environment at a temperature of 30° C. in a deoxygenated atmosphere for a certain period of time. After the BOD solution was left as above, improvement of the BOD activity by the present activity improving method was evaluated by measurement of the BOD activity.
In Test Example 1, a BOD gene derived from a Myrothecium verrucaria MT-1 (GenBank accession number: D12579.1) was introduced into an Aspergillus sp., and then a recombinant BOD (hereinafter, also referred to simply as “BOD”) expressed in the Aspergillus sp. was purified by using a well-known technique and then used as the BOD. The BOD gene derived from the Myrothecium verrucaria MT-1 was codon-optimized in accordance with a gene sequence of the Aspergillus sp., and then introduced into the Aspergillus sp. Further, the BOD thus purified was dissolved in a 50 mM glycine-KOH (pH 8.5) buffer so that the concentration of the BOD became 1.0 mg/mL. Then, a resultant solution was used as a BOD enzyme solution.
The enzymatic activity of the BOD was measured as follows. To 1780 μL of a 50 mM potassium phosphate buffer (pH 6.5), 200 μL of a 20 mM ABTS substrate solution was added, so that a mixed solution (1980 μL) was prepared. This mixed solution was incubated for 1 min at 37° C. Thereafter, 20 μL of a solution containing the BOD (specifically, a BOD solution for evaluation, which will be described later) was added to the mixed solution, and a resultant mixed solution (2 mL) was incubated at 37° C. While the mixed solution was incubated, the absorbance of the mixed solution at a wavelength of 436 nm was measured immediately after that addition of the BOD solution for evaluation (at 0 seconds) and thereafter every 20 seconds. On the basis of (i) the absorbance of the mixed solution at a wavelength of 436 nm immediately after the addition of the BOD solution for evaluation and (ii) the absorbance of the mixed solution at a wavelength of 436 nm after a lapse of 1 minute from the addition of the BOD solution for evaluation, calculation was carried out for obtaining an increase rate per minute of the absorbance of the mixed solution at a wavelength of 436 nm after the addition of the BOD solution for evaluation. The BOD activity (unit) in the BOD solution for evaluation was calculated from the increase rate. In the present specification, the amount of enzyme for oxidizing 1 μmol of ABTS per minute was defined as one unit.
A specific test method of Test Example 1 is as follows. To a BOD enzyme solution containing a BOD, one of the above-described present activity improving agents was added, so that a BOD solution (which is the BOD solution according to an embodiment of the present invention) was prepared. Further, one of the above-described comparative substances was added to the BOD enzyme solution, so that another BOD solution was prepared. In addition, still another BOD solution was prepared by adding, to the BOD enzyme solution, distilled water in place of the activity improving agent or the comparative substance, so that a control (denoted as Without additive in Tables 1 to 3) was prepared. The final concentration of the activity improving agent or the comparative substance in each of the above BOD solutions was shown in “mM” or “percentage (%)” (amount (g) of the activity improving agent or the comparative substance relative to 100 mL of the BOD solution) in Table 1.
Thereafter, one of these BOD solutions and a deoxygenating agent (Anaero Pack manufactured by Mitsubishi Gas Chemical Company, Inc.) were included in one container. Then, the container was sealed, so that a BOD container was prepared. The BOD container was left in an environment at a temperature of 30° C. in a deoxygenated atmosphere for 47 days (Table 2) or 14 days (Table 3). […]

[2] = ABTS initial absorbance (A436) reduction rate (Test Example 3); assay type: physicochemical; details: for A436 reduction rate (%): in one minute at 25° C., 1 mM (single compound) or 0.011 g nitrogen element in 100 mL (composition), pH 8.5; for change of ABTS initial absorbance: reaction solution A, FIG. 2
From the text: In the present specification, the absorbance of a solution containing ABTS (ABTS solution), at a wavelength of 436 nm, is defined as an ABTS initial absorbance (A436). In the present specification, the ABTS initial absorbance (A436) reduction rate (%) of the activity improving agent is defined to be a reduction rate (%) of the absorbance of a mixed solution, which contains the above ABTS solution and the above activity improving agent, at a wavelength of 436 nm in one minute, with respect to the ABTS initial absorbance (A436) (100%). Note that the ABTS solution is a solution in which the concentration of ABTS is adjusted such that the absorbance (A436) at a wavelength of 436 nm is approximately 1.3 at an optical path length of 1.0 cm. The value “approximately 1.3” here is intended to mean a value in a range in which 1.3 is obtained by rounding the value to the first decimal place. Test Examples described later will explain specific methods for measuring the absorbance (A436) of the ABTS solution at a wavelength of 436 nm and the ABTS initial absorbance (A436) reduction rate (%) of the activity improving agent. ABTS is an abbreviation for 2,2′-azinobis(3-ethylbenzothiazoline-6-sulfonic acid).
In the present activity improving method, when the ABTS initial absorbance (A436) reduction rate (%) of the activity improving agent is measured, the concentration of the activity improving agent in the ABTS solution for measurement is set as follows: (a) the concentration is set to 1 mM, when the molecular weight of the activity improving agent is evident as in a case where the activity improving agent is made of a single compound; and (b) when the activity improving agent is a substance which is made of a composition having an inevident molecular weight, the content of nitrogen element is used as a reference and the concentration is set such that the content of nitrogen element derived from the activity improving agent is 0.011 g in 100 mL of the ABTS solution for measurement. Note that, in the above (b), the content of nitrogen element derived from the activity improving agent in the ABTS solution is a value calculated by the Kjeldahl method.
The following describes a specific evaluation method. ABTS employed was an ABTS manufactured by Roche Diagnostics K.K. Further, the ABTS was dissolved in a 50 mM glycine-KOH (pH 8.5) buffer so that the concentration of the ABTS became 2.0 mg/mL. An ABTS solution was thus prepared. The absorbance of the ABTS solution at a wavelength of 436 nm (ABTS initial absorbance (A436)) was measured at an optical path length of 1.0 cm, by using a molecular absorption spectrometer Spectra Max Plus 384 (manufactured by Molecular Devices Japan K.K.). As a result the absorbance was approximately 1.3. Next, 5 μL of an activity improving agent solution or a comparative substance solution was added to 195 μL of the ABTS solution, so that a reaction solution for evaluating ABTS (hereinafter, also referred to as “reaction solution A”) was prepared. […]

[3] = Day 0 (start of leaving, set to 100%)
[4] = Day 0 (start of leaving, set to 100%) of the 14-day test

Row | Compound | Activity (%) Day 47 [1] [%] | A436 reduction rate (%) [2] [%] | Activity (%) Day 0 [1, 3] [%] | Activity (%) Day 14 [1] [%] | Activity (%) Day 0 [1, 4] [%] | change of ABTS initial absorbance [2]
1 | NCCS [Cysteamine hydrochloride, cysteamine hydrochloride, reference compound] | 1 | 87.81 |  |  |  | 
2 | N.O=C(O)CS [Ammonium thioglycolate, ammonium thioglycolate, reference compound] | 0 | 87.81 | 100 |  |  | 
3 | Cc1c(C)c2c(c(C)c1O)CCC(C)(C(=O)O)O2 (stereo not shown) [Trolox] | 251 | 83.90 |  |  |  | 
4 | O=C(CS)OCC(O)CO (stereo not shown) [GMT, glyceryl monothioglycolate, reference compound] | 1 | 87.81 |  |  |  | 
5 | CC(=O)N[C@@H](CS)C(=O)O [N-acetyl-L-cysteine] | 122 | 87.81 |  |  |  | 
6 | O=CC(=O)O [Glyoxylic acid, glyoxylic acid] |  | 0.33 |  | 194 |  | 
7 | N.N.O=S(=O)(O)O [Ammonium sulfate, ammonium sulfate, reference compound] |  | 0.00 |  | 65 | 100 | does not change
8 | NC(N)=O [Urea, urea, reference compound] |  | 0.00 |  | 56 | 100 | does not change
9 | O[C@H](CS)[C@H](O)CS (racemic) [DTT, dithiothreitol, reference compound] | 0 | 87.81 |  |  |  | 
10 | N[C@@H](CCC(=O)N[C@@H](CS)C(=O)NCC(=O)O)C(=O)O [Glutathione (reduced form), glutathione (reduced form)] | 113 | 87.81 | 100 |  |  | 
11 | Cl.N[C@@H](CS)C(=O)O [L-cysteine hydrochloride] | 130 | 87.81 |  |  |  | 
12 | O=S([O-])[O-].[Na+].[Na+] [Sodium sulfite, sodium sulfite] | 162 | 87.81 | 100 |  |  | 
